According to patent publication US6495591B1, “Fungal efflux pump inhibitors” (Essential Therapeutics, Inc., priority 1997, dated 2002):
In brackets after ≈: the same amount, converted by molar mass. Read-outs that look alike come from different tables or passages of the source.

What was measured:
[1] = test system: YEM 51 C. glabrata wt; assay: FEPI MIC with/without 1/8 fluconazole MIC at 24 hrs (Table 11); assay type: cell-based; settings: Nakaseomyces glabratus; YEM 51; NCCLS criteria for azoles; read-out: FLU MIC
[2] = test system: C. albicans YEM-15 (CDR1 & CDR2 overexpressor); assay: microbe, parasite or virus in culture; assay type: cell-based; settings: Candida albicans
[3] = test system: S. cerevisiae YEM-3 parent strain (no pump); assay: microbe, parasite or virus in culture; assay type: cell-based; settings: Saccharomyces cerevisiae, read-out: MIC for the parent strain to fluconazole
[4] = test system: YEM 13 C. albicans BEN up; assay: microbe, parasite or virus in culture; assay type: cell-based; settings: Candida albicans, read-out: FLU MIC
[5] = test system: YEM 27 C. albicans ΔCDR1ΔCDR2 ΔBENΔFLU1; assay: microbe, parasite or virus in culture; assay type: cell-based; settings: Candida albicans, read-out: FLU MIC
[6] = test system: C. glabrata YEM-17 (CgCDR overexpressor); assay: microbe, parasite or virus in culture; assay type: cell-based; settings: YEM-17; fluconazole alone
[7] = test system: YEM 24 C. albicans ΔCDR1, ΔCDR2; assay: microbe, parasite or virus in culture; assay type: cell-based; settings: Candida albicans, read-out: FLU MIC
[8] = test system: C. albicans clinical isolates (n = 33); assay: microbe, parasite or virus in culture; assay type: cell-based; settings: Candida albicans
[9] = test system: C. krusei YEM-52 (ATCC 90878), wild type; assay: Broth dilution MIC, fluconazole with/without milbemycin oxime (Table 6); assay type: cell-based; settings: Pichia kudriavzevii, ATCC90878; YEM-52 (ATCC 90878); read-out: MIC Flu alone
[10] = test system: C. albicans YEM-27 (CDR1, CDR2, BEN, FLU1 deleted); assay: microbe, parasite or virus in culture; assay type: cell-based; settings: Candida albicans, read-out: MIC Flu alone
[11] = test system: YEM 15 C. albicans, CDR1CDR2 up; assay: microbe, parasite or virus in culture; assay type: cell-based; settings: Candida albicans, read-out: FLU MIC
[12] = test system: C. albicans YEM-21 (BEN deleted); assay: microbe, parasite or virus in culture; assay type: cell-based; settings: Candida albicans, read-out: MIC Flu alone
[13] = test system: S. cerevisiae YEM-39 overexpressing CgCDR (C. glabrata); assay: microbe, parasite or virus in culture; assay type: cell-based; settings: Saccharomyces cerevisiae
[14] = test system: C. neoformans; assay: microbe, parasite or virus in culture; assay type: cell-based, Cryptococcus neoformans; settings: Cryptococcus neoformans, read-out: Fluconazole MIC, alone
[15] = test system: C. albicans YEM-24 (CDR1, CDR2 deleted); assay: microbe, parasite or virus in culture; assay type: cell-based; settings: Candida albicans, read-out: MIC Flu alone
[16] = test system: C. tropicalis; assay: microbe, parasite or virus in culture; assay type: cell-based; settings: Candida tropicalis, read-out: Fluconazole MIC, alone
[17] = test system: C. glabrata YEM-18 (low level CgBEN and CgCDR expression); assay: microbe, parasite or virus in culture; assay type: cell-based; settings: YEM-18; fluconazole alone
[18] = test system: pCgBEN (MF) efflux pump in S. cerevisiae YEM-40; assay type: cell-based, C. glabrata
[19] = test system: C. albicans YEM-10 (low level CDR1 expressor); assay: microbe, parasite or virus in culture; assay type: cell-based; settings: Candida albicans, read-out: MIC Flu alone
[20] = test system: C. krusei YEM-71; assay: Broth dilution checkerboard, azoles and terbinafine with milbemycin α9 (Table 8); assay type: cell-based; settings: Pichia kudriavzevii
[21] = test system: S. cerevisiae YEM-37 overexpressing CDR2 (C. albicans); assay: microbe, parasite or virus in culture; assay type: cell-based; settings: Saccharomyces cerevisiae
[22] = test system: C. glabrata YEM-17 (CgCDR overexpressor); assay: microbe, parasite or virus in culture; assay type: cell-based; settings: Nakaseomyces glabratus
[23] = test system: C. albicans YEM-20 (CDR1 deleted); assay: microbe, parasite or virus in culture; assay type: cell-based; settings: Candida albicans, read-out: MIC Flu alone
[24] = test system: C. albicans YEM-29 (BEN, FLU1 deleted); assay: microbe, parasite or virus in culture; assay type: cell-based; settings: Candida albicans, read-out: MIC Flu alone
[25] = test system: YEM 53 C. krusei; assay: FEPI MIC with/without 1/8 fluconazole MIC at 24 hrs (Table 11); assay type: cell-based; settings: Pichia kudriavzevii; YEM 53; NCCLS criteria for azoles; read-out: FLU MIC
[26] = test system: C. glabrata YEM-16 (low level CgBEN and CgCDR expression); assay: microbe, parasite or virus in culture; assay type: cell-based; settings: YEM-16; fluconazole alone
[27] = test system: C. krusei; assay: MacSynergy 3-D synergy volume, checkerboard (Table 13); assay type: cell-based
Description: (§1) The activity of one milbemycin was also studied in checker-board assays. […] It provides information on the extent of synergism between the two drugs and the concentrations at which synergism can be detected. Using differential surface analysis, pick of synergy volumes are quantified for each combination of drugs and strain tested in a traditional checkerboard assay (Table 13).

[28] = test system: C. albicans BEN up; assay: as above; assay type: cell-based
Description: as §1

[29] = test system: YEM 30 C. albicans wt; assay: FEPI MIC with/without 1/8 fluconazole MIC at 24 hrs (Table 11); assay type: cell-based; settings: Candida albicans, YEM 30
[30] = test system: S. cerevisiae YEM-1 overexpressing CDR1 (C. albicans); assay: microbe, parasite or virus in culture; assay type: cell-based; settings: Saccharomyces cerevisiae
[31] = test system: C. albicans YEM-30 (wild-type, no pump deleted); assay: microbe, parasite or virus in culture; assay type: cell-based; settings: Candida albicans, read-out: MIC Flu alone
[32] = test system: C. albicans ΔCDR1 ΔCDR2 ΔBEN ΔFLU1; assay type: cell-based
Description: as §1

[33] = test system: C. albicans, CDR1, CDR2, up; assay type: cell-based
Description: as §1

[34] = test system: C. glabrata, CgCDR up; assay type: cell-based
Description: as §1

[35] = test system: C. krusei; assay: microbe, parasite or virus in culture; assay type: cell-based; settings: Pichia kudriavzevii, read-out: Fluconazole MIC, alone
[36] = test system: C. albicans YEM-12 (low level CDR1 expressor); assay: microbe, parasite or virus in culture; assay type: cell-based; settings: Candida albicans, read-out: MIC Flu alone
[37] = test system: C. lipolytica; assay: microbe, parasite or virus in culture; assay type: cell-based; settings: Yarrowia lipolytica, read-out: Fluconazole MIC, alone
[38] = test system: C. glabrata clinical isolates (n = 12); assay: microbe, parasite or virus in culture; assay type: cell-based; settings: Nakaseomyces glabratus
[39] = test system: C. glabrata YEM-19 (CgCDR overexpression, higher than YEM-17); assay: microbe, parasite or virus in culture; assay type: cell-based; settings: YEM-19; fluconazole alone
[40] = test system: C. albicans YEM-14 (low level CDR1 expressor); assay: microbe, parasite or virus in culture; assay type: cell-based; settings: Candida albicans, read-out: MIC Flu alone
[41] = test system: C. albicans, wt; assay: MacSynergy 3-D synergy volume, checkerboard (Table 13); assay type: cell-based
Description: as §1

[42] = test system: C. glabrata, wt; assay: as above; assay type: cell-based
Description: as §1

[43] = read-out: Fluconazole MIC90, alone

OC(Cn1cncn1)(Cn1cncn1)c1ccc(F)cc1F [Fluconazole, fluconazole, reference compound]
MIC [1]: 64 µg/mL (≈ 209 µM) | MIC ([2]; read-out: Fluconazole MIC): 128 µg/mL (≈ 418 µM) | MIC [3]: 0.5 µg/mL (≈ 1.63 µM) | MIC [4]: 64 µg/mL (≈ 209 µM) | MIC [5]: ≤ 0.125 µg/mL | Fluconazole MIC with 0 μg/ml milbemycin β1 [6]: 64 µg/mL | MIC [7]: 0.25 µg/mL (≈ 0.816 µM) | MIC50 ([8]; read-out: Fluconazole MIC50, alone, C. albicans n = 33, MIC (80%) in YPD): 1 µg/mL (≈ 3.27 µM) | MIC90 [8, 43]: > 128 µg/mL | MIC [9]: 64 µg/mL (≈ 209 µM) | MIC [10]: 0.03 µg/mL (≈ 0.098 µM) | MIC [11]: 64 µg/mL (≈ 209 µM) | MIC [12]: 0.25 µg/mL (≈ 0.816 µM) | MIC ([13]; read-out: Fluconazole MIC): 64 µg/mL (≈ 209 µM) | MIC [14]: > 128 µg/mL | MIC [15]: 0.125 µg/mL (≈ 0.408 µM) | MIC [16]: > 128 µg/mL | Fluconazole MIC with 0 μg/ml milbemycin β1 [17]: 8 µg/mL | Fluconazole MIC [18]: 32 µg/mL | MIC [19]: 0.25 µg/mL (≈ 0.816 µM) | MIC ([20]; YEM71, read-out: Fluconazole MIC): 128 µg/mL | MIC ([21]; read-out: Fluconazole MIC): 4 µg/mL (≈ 13.1 µM) | MIC ([22]; read-out: Fluconazole MIC): 128 µg/mL (≈ 418 µM) | MIC [23]: 0.125 µg/mL (≈ 0.408 µM) | MIC [24]: 0.25 µg/mL (≈ 0.816 µM) | MIC [25]: 64 µg/mL (≈ 209 µM) | Fluconazole MIC with 0 μg/ml milbemycin β1 [26]: 16 µg/mL | Synergy Volume, fluconazole + one milbemycin (FEPI, not named) [27]: 1178 | Synergy Volume, fluconazole + one milbemycin (FEPI, not named) [28]: 196 | MIC ([29]; read-out: FLU MIC at 40 hrs, read at 40 hrs): 64 µg/mL (≈ 209 µM) | MIC ([29]; read at 24 hours, read-out: FLU MIC at 24 hours): 0.5 µg/mL (≈ 1.63 µM) | MIC ([30]; read-out: Fluconazole MIC): 128 µg/mL (≈ 418 µM) | MIC [31]: 0.5 µg/mL (≈ 1.63 µM) | Synergy Volume, fluconazole + one milbemycin (FEPI, not named) [32]: 0.08 | Synergy Volume, fluconazole + one milbemycin (FEPI, not named) [33]: 2337 | Synergy Volume, fluconazole + one milbemycin (FEPI, not named) [34]: 1815 | MIC [35]: 128 µg/mL (≈ 418 µM) | MIC [36]: 2 µg/mL (≈ 6.53 µM) | MIC [37]: 128 µg/mL (≈ 418 µM) | MIC50 ([38]; read-out: Fluconazole MIC50, alone): 32 µg/mL (≈ 104 µM) | MIC90 [38, 43]: > 128 µg/mL | Fluconazole MIC with 0 μg/ml milbemycin β1 [39]: 128 µg/mL | MIC [40]: 0.125 µg/mL (≈ 0.408 µM)

CN(C/C=C/C#CC(C)(C)C)Cc1cccc2ccccc12 [Terbinafine, terbinafine]
MIC ([2]; read-out: Terbinafine MIC): 128 µg/mL (≈ 439 µM) | MIC ([13]; read-out: Terbinafine MIC): 4 µg/mL (≈ 13.7 µM) | MIC ([20]; YEM71, read-out: Terbinafine MIC): 128 µg/mL | MIC ([21]; read-out: Terbinafine MIC): 2 µg/mL (≈ 6.86 µM) | MIC ([22]; read-out: Terbinafine MIC): 128 µg/mL (≈ 439 µM) | Synergy Volume, terbinafine + one milbemycin (FEPI, not named) [41]: 2790 | Synergy Volume, terbinafine + one milbemycin (FEPI, not named) [42]: 478 | Synergy Volume, terbinafine + one milbemycin (FEPI, not named) [27]: 1517 | Synergy Volume, terbinafine + one milbemycin (FEPI, not named) [28]: 500 | MIC ([30]; read-out: Terbinafine MIC): 128 µg/mL (≈ 439 µM) | Synergy Volume, terbinafine + one milbemycin (FEPI, not named) [32]: 169 | Synergy Volume, terbinafine + one milbemycin (FEPI, not named) [33]: 1386 | Synergy Volume, terbinafine + one milbemycin (FEPI, not named) [34]: 392
